Data as given in US7897640B2 (priority 2003, dated 2011).
In brackets after ≈: the same amount, converted by molar mass. Where two headings read alike, the source gives them in different places.

Key:
mycoplasma pneumoniae = test: bacteriostatic effect on mycoplasma pneumoniae; type: cell-based
candida and cryptococcus = test: in vitro antifungal test, candida and cryptococcus; type: cell-based
dermatophyte = test: in vitro antifungal test, dermatophyte; type: cell-based
Pseudallescheria boydii = test: in vitro antifungal test, Pseudallescheria boydii; type: cell-based
[1] = tested on: aspergillus fumigatus, cryptococcus and red trichophyton; test: in vitro antifungal test, aspergillus fumigatus, cryptococcus and red trichophyton; type: cell-based
[2] = tested on: Staphylococcus epidermidis; test: comparative MIC experiment, Staphylococcus epidermidis; type: cell-based
Serratia marcescens = test: comparative MIC experiment, Serratia marcescens; type: cell-based
Bacteroid = test: comparative MIC experiment, Bacteroid; type: cell-based
Candida albicans = test: comparative MIC experiment, Candida albicans; type: cell-based
[3] = tested on: AZT-sensitive strain HIV-1 018a
[4] = tested on: AZT-resistant strain HIV-1 018c; settings: PBMC, AZT-resistant HIV-1 018c
[5] = tested on: AZT-resistant strain HIV-1 018c; test: microbe, parasite or virus in culture; settings: Human immunodeficiency virus 1, PBMC, 96 h, read-out: Median effective concentration (EC50), HIV-1 P24 antigen
HIV-1 IIIB [6] = test: HIV-1 P24 antigen inhibition in MT-4 culture
Experimental: MT-4 cell suspension was counted, then 100 μl of suspension (2×10^5 cells/ml) was seeded into 96-well cell culture plate, 50 μl liquor of 2× diluted medicament or 4-5× diluted positive medicament AZT (8 concentrations) was added, respectively, and 50 μl virus suspension with proper titer was add concurrently. Each dilution was repeated in 3 wells and cell control group and virus control group were established. They were incubated at 37° C., 5% CO2 saturated humidity incubator and the cytopathy was observed everyday. On the fourth day after administration (96 hours), the supernatants were sucked out and stored at −20° C. for measuring HIV-1-P24 antigen titer. Accordingly, the inhibition effect of medicament could be calculated, and the cells were dyed with MTT to measure the cytotoxicity.
The medicated cell supernatants infected with MT-4 were diluted after being thawed. HIV-1 P24 titer was measured according to the operation procedure described in HIV-1 P24 antigen kit.
[formula] 2.2.2 Reed & Muench Method for Calculating CC50 and EC50 of Medicament in Cell Culture
[formula] 2.2.3. Calculation Method of Selection Index (SI) of HIV-1 P24 Antigen in Cell Culture SI=CC50/EC50 3.

[7] = cytotoxicity by MTT in HIV-infected PBMC culture; settings: human, Median cytotoxicity concentration (CC50)
Experimental: (§1) 10 μl MTT dye (5 mg/ml) was added to each well, and then incubated at 37° C., 5% CO2 saturated humidity incubator for 4 hours. 100 μl 50% DMF-17% Triton X-100 destainer was added to each well and the mixtures were kept at 37° C. overnight. Then OD570nm values were measured at 570 nm with a luminometer to calculate the median cytotoxicity concentration of medicament (CC50).
(§2) The fresh normal human venous blood was taken and PBMC was separated using FiColl separation solution. The 1.5×10^5 cells/ml suspension prepared with the culture fluid containing PHA was seeded into the culture bottle and incubated in the incubator (37° C., 5% CO2) for 72 hours. The cells were collected with cell scrapers then were infected with the 10^−2 viral liquid of AZT-sensitive (018a) or AZT-resistant (018c) viral strain. After absorption for 2 hours, the non-absorbed viruses were washed with serum-free 1640 culture medium. The infected cells were prepared into 1×10^6 cells/ml with the culture fluid, and then were seeded into the 96-well culture board in 100 μl/well. At the same time, 100 μl liquor of 2× diluted AKJ-2 or 5× diluted positive control medicament AZT with different concentrations was added. The cell control group and virus control group were established. Four days (96 hours) after incubating under 37° C., 5% CO2, the supernatants were sucked out and stored at −20° C. to measure HIV-1-P24 antigen titer and calculate the inhibition effect of the medicament. The cells were dyed with MTT to measure the cytotoxicity.

[8] = tested on: AZT-sensitive strain HIV-1 018a; test: HIV-1 P24 antigen inhibition in PBMC, AZT-sensitive strain
HIV-1 IIIB [9] = test: HIV-1 P24 antigen inhibition in chronically infected H9 cells
Experimental: HIV-1 P24 antigen titer was measured according to the operation procedures stated in HIV-1 P24 antigen kit.
100 μl (2×10^5 cells/ml) of H9 cells suspension was seeded into 96-well cell culture plate. Then, 100 μl liquor of 2× diluted medicament or 4-5× diluted positive AZT (8 concentrations) was added. Each dilution was repeated in three wells. The cell control group was established. The cells were incubated in the incubator (37° C., 5% CO2, saturated humidity) and the cytopathy was observed everyday. Four days (96 hours) after administration, the supernatants were sucked out and stored at −20° C. to measure HIV-1-P24 antigen titer. The inhibition effect of the medicament was determined. The cells were dyed with MTT to measure the cytotoxicity.
2.2.2 Reed & Muench Method for Calculating CC50 and EC50 of Medicament in Cell Culture
Calculation Method of Selection Index (SI) of HIV-1 P24 Antigen in Cell Culture SI=CC50/EC50 3.

solubility = type: physicochemical
human T lymphocytes MT-4 = test: cytotoxicity by MTT in MT-4 culture; settings: MT-4 culture with HIV-1 IIIB, 96 hours
[10] = tested on: human peripheral blood mononuclear cell (PBMC); test: cytotoxicity by MTT in HIV-infected PBMC culture; settings: 96 hours
Experimental: as §1, §2

[11] = tested on: human T lymphocytes H9 chronically infected with HIV-1 IIIB; test: cytotoxicity by MTT in H9 cells chronically infected with HIV-1 IIIB; settings: H9 cell chronically infected with HIV-1 IIIB, 96 hours
[12] = PBMC infected with AZT-resistant HIV-1 018c
[13] = PBMC infected with AZT-sensitive HIV-1 018a

CC[C@H]1OC(=O)[C@H](C)[C@@H](O[C@H]2C[C@@](C)(OC)[C@@H](O)[C@H](C)O2)[C@H](C)[C@@H](O[C@@H]2O[C@H](C)C[C@H](N(C)C)[C@H]2O)[C@](C)(O)C[C@@H](C)C(=O)[C@H](C)[C@@H](O)[C@]1(C)O [erythrocin, reference compound]
concentration of equivalent inhibitory effect (mycoplasma pneumoniae; comparator): 0.1925 µg/mL

CC(C)=CCC(OC(=O)C=C(C)C)C1=CC(=O)c2c(O)ccc(O)c2C1=O (stereo not drawn) [β,β-dimethylacrylshikonin]
MIC (candida and cryptococcus): 2.08 to 33.3 µg/mL | MIC90 (candida and cryptococcus): 33.3 µg/mL (≈ 89.9 µM) | MIC (dermatophyte): 4.16 to 8.32 µg/mL | MIC90 (dermatophyte): 4.16 µg/mL (≈ 11.2 µM) | MIC (Pseudallescheria boydii): 4.16-8.32 μg/mi | MIC [1]: 3.0625 to 250 µg/mL | MIC [2]: 0.391 µg/mL (≈ 1.06 µM) | MIC (Serratia marcescens): 0.781 µg/mL (≈ 2.11 µM) | MIC (Bacteroid): 0.391 µg/mL (≈ 1.06 µM) | MIC (Candida albicans): 3.9062 µg/mL (≈ 10.5 µM) | MIC (mycoplasma pneumoniae): 2 µg/mL (≈ 5.4 µM)

Cc1cn([C@H]2C[C@H](N=[N+]=[N-])[C@@H](CO)O2)c(=O)[nH]c1=O [AZT, Zidovudine, reference compound]
Selection index (CC50/EC50) [3]: 10275.78 ± 1530.22 | Selection index (CC50/EC50) [4]: 1895.40 ± 479.53 | EC50 [5]: 0.05 ± 0.01 µg/mL (≈ 0.187 µM) | EC50 (HIV-1 IIIB [6]; Human immunodeficiency virus 1, IIIB, 96 h, read-out: Median effective concentration (EC50), HIV-1 P24 antigen): 0.09 ± 0.003 µg/mL (≈ 0.337 µM) | Selection index (CC50/EC50) (HIV-1 IIIB [6]; MT-4, HIV-1 IIIB): 1808.33 ± 723.07 | CC50 at 96 h [7, 12]: 88 ± 15.5 µg/mL (≈ 329 µM) | CC50 at 96 h [7, 13]: 77.2 ± 20.9 µg/mL (≈ 289 µM) | EC50 ([8]; Human immunodeficiency virus 1, PBMC, 96 h, read-out: Median effective concentration (EC50), HIV-1 P24 antigen): < 0.0064 µg/mL | Selection index (CC50/EC50) (HIV-1 IIIB [9]; H9 cell chronically infected with HIV-1 IIIB): 83.65 ± 37.96 | EC50 (HIV-1 IIIB [9]; Human immunodeficiency virus 1, IIIB, H9, 96 h, read-out: Median effective concentration (EC50), HIV-1 P24 antigen): 1.08 ± 0.24 µg/mL (≈ 4.04 µM)

CC(=O)O[C@H](CC=C(C)C)C1=CC(=O)c2c(O)ccc(O)c2C1=O [acetylshikonin]
solubility in DMSO (solubility; DMSO): soluble | solubility in water (solubility; water): insoluble | Median effective concentration (EC50), HIV-1 P24 antigen ([4]; 96 hours): >1.25 ± 0 µg/mL | Median cytotoxicity concentration (CC50) (human T lymphocytes MT-4): 0.49 ± 0.06 µg/mL | Selection index (CC50/EC50) (HIV-1 IIIB [6]; MT-4, HIV-1 IIIB): 2.45 ± 0.51 | Median effective concentration (EC50), HIV-1 P24 antigen (HIV-1 IIIB [6]; MT-4, HIV-1 IIIB, 96 hours): 0.20 ± 0.03 µg/mL | Median cytotoxicity concentration (CC50) [10, 12]: 5.83 ± 0.38 µg/mL | Median cytotoxicity concentration (CC50) [10, 13]: 7.69 ± 0.19 µg/mL | Selection index (CC50/EC50) ([8]; PBMC, AZT-sensitive HIV-1 018a): 6.50 ± 0.08 | Median effective concentration (EC50), HIV-1 P24 antigen ([8]; PBMC, AZT-sensitive HIV-1 018a, 96 hours): 1.18 ± 0.03 µg/mL | Median effective concentration (EC50), HIV-1 P24 antigen (HIV-1 IIIB [9]; H9 cell chronically infected with HIV-1 IIIB, 96 hours): >0.25 ± 0 µg/mL | inhibition effect on HIV-1 IIIB chronically-infected H9 cells (HIV-1 IIIB [9]; two lots of tests): no inhibition effect | Median cytotoxicity concentration (CC50) [11]: 1.77 ± 0.13 µg/mL
